Measured values from ChEMBL document CHEMBL5338745, “Factor XIa Inhibitors in Anticoagulation Therapy: Recent Advances and Perspectives” (J Med Chem, 2023).

Key:
Coagulation factor VII = target: T1, Coagulation factor VII (Homo sapiens, UniProt P08709); assay: Inhibition of human FVIIa
T1 sequence (P08709 whole entry): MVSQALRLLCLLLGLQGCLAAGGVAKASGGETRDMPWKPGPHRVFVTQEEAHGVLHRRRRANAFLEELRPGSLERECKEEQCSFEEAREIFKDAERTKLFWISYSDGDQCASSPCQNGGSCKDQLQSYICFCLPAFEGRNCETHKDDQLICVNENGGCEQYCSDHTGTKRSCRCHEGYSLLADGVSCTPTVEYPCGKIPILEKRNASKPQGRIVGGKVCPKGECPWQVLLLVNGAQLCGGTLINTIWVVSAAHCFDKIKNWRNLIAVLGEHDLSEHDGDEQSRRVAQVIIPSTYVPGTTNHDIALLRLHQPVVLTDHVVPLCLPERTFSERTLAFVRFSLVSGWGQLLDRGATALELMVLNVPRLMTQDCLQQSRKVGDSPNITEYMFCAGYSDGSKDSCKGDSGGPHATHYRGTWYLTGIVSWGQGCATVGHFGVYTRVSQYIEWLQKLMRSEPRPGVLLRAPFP

Plasminogen = Plasminogen (Homo sapiens, UniProt P00747); assay: Inhibition of human plasmin
Coagulation factor XI = Coagulation factor XI (Homo sapiens, UniProt P03951); assay: Inhibition of FXIa (unknown origin)
Prothrombin = Prothrombin (Homo sapiens, UniProt P00734); assay: Inhibition of human thrombin
Coagulation factor XII = target: T2, Coagulation factor XII (Homo sapiens, UniProt P00748); assay: Inhibition of human FXIIa
T2 sequence (P00748 whole entry): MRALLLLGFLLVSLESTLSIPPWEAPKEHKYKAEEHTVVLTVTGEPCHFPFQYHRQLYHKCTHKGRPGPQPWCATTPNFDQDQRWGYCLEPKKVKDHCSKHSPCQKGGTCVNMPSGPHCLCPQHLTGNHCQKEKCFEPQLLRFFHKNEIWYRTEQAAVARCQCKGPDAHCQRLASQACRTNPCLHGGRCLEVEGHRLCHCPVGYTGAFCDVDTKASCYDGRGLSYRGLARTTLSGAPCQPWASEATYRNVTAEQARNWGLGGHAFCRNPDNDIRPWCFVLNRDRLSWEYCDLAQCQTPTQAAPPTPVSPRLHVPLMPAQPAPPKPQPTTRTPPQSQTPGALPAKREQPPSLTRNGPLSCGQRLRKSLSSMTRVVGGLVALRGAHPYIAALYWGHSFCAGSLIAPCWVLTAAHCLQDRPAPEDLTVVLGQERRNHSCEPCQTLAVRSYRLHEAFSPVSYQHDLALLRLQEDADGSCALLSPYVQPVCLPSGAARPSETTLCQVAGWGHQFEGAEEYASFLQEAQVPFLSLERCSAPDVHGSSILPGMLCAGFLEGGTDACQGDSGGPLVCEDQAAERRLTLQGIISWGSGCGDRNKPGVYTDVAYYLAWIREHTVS

Chymotrypsin = Chymotrypsin (Homo sapiens, UniProt Q99895+P17538+P40313+Q6GPI1); assay: Inhibition of human chymotrypsin; assay type: protein assay
Trypsin = Trypsin (Homo sapiens, UniProt P07477+P07478+P35030); assay: Inhibition of human trypsin; assay type: protein assay
Coagulation factor X = Coagulation factor X (Homo sapiens, UniProt P00742); assay: Inhibition of human FXa
Coagulation factor X, sequence (P00742 41-179 limits assumed): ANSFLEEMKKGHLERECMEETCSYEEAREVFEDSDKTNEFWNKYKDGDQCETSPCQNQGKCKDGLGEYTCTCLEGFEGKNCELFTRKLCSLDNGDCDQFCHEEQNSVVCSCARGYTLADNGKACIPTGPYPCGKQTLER
Coagulation factor X, sequence (P00742 235-488 limits assumed): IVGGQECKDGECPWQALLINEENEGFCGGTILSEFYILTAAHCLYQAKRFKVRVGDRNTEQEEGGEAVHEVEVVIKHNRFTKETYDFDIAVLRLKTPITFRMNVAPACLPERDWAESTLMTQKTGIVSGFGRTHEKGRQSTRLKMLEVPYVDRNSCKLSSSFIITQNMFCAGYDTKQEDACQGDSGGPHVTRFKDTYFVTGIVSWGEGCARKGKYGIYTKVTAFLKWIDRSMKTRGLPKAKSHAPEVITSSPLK

Coagulation factor XI, sequence (P03951 19-387 limits assumed): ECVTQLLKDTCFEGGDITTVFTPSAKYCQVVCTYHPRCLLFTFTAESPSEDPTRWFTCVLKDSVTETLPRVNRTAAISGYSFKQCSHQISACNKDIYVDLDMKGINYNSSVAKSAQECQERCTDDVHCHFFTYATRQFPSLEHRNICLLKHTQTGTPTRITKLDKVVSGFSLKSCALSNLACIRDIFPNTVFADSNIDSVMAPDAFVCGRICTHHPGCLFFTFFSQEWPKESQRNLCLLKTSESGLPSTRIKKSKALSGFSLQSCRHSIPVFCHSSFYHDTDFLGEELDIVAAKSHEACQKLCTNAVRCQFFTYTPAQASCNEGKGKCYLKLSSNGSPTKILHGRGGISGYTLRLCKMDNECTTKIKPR
Coagulation factor XI, sequence (P03951 388-625 limits assumed): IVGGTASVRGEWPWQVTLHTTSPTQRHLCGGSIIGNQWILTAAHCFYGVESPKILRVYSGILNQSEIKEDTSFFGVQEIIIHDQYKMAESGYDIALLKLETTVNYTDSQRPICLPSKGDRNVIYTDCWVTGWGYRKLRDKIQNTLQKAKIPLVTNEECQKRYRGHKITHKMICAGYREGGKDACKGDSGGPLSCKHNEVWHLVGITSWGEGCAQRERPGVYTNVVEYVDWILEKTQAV
Plasminogen, sequence (P00747 97-580 limits assumed): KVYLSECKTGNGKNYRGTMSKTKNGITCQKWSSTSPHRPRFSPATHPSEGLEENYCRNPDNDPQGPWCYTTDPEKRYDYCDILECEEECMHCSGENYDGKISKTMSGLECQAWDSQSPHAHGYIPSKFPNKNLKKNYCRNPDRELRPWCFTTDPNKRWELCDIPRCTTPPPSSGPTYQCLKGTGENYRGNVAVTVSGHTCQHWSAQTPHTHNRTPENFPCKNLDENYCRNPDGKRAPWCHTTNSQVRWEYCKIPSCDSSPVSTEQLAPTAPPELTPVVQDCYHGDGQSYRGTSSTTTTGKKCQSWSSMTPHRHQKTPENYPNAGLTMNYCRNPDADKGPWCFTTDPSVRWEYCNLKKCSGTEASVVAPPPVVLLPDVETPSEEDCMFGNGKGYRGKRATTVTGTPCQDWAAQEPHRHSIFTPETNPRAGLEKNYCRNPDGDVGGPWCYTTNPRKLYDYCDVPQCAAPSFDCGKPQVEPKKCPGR
Plasminogen, sequence (P00747 581-810 limits assumed): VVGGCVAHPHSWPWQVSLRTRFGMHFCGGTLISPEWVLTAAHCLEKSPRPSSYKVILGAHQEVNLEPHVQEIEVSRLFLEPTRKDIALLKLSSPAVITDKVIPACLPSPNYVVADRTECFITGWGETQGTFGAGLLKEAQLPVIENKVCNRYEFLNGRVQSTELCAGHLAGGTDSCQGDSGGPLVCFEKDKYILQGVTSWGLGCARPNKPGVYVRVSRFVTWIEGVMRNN

IC50 (Coagulation factor VII): > 40 µM | IC50 (Plasminogen): > 40 µM | IC50 (Coagulation factor XI): 0.28 µM | IC50 (Prothrombin): > 40 µM | IC50 (Coagulation factor XII): > 40 µM | IC50 (Chymotrypsin): > 40 µM | IC50 (Trypsin): > 40 µM | IC50 (Coagulation factor X): > 40 µM
SMILES: O=C(O[C@H]1[C@H](OC(=O)c2cc(OS(=O)(=O)[O-])cc(OS(=O)(=O)[O-])c2)[C@H](OC(=O)c2cc(OS(=O)(=O)[O-])cc(OS(=O)(=O)[O-])c2)[C@@H](OC(=O)c2cc(OS(=O)(=O)[O-])cc(OS(=O)(=O)[O-])c2)[C@H](OC(=O)c2cc(OS(=O)(=O)[O-])cc(OS(=O)(=O)[O-])c2)[C@H]1OC(=O)c1cc(OS(=O)(=O)[O-])cc(OS(=O)(=O)[O-])c1)c1cc(OS(=O)(=O)[O-])cc(OS(=O)(=O)[O-])c1.[Na+].[Na+].[Na+].[Na+].[Na+].[Na+].[Na+].[Na+].[Na+].[Na+].[Na+].[Na+]
